Reference: US4581354A, “3-arylcarbonyl- and 3-cycloalkylcarbonyl-1-aminoalkyl-1H-indoles, compositions and use” (Sterling Drug Inc., priority 1985, dated 1986)
Counter-ions that a name gives are not always drawn. Like-named read-outs stand apart in the source and are kept apart here.

Legend:
[1] = tested on: acetylcholine-induced abdominal constriction; assay: animal or person; type: in vivo, mice; conditions: for inhibition in vivo at 1 mg/kg: 1 mg./kg. i.v.; for inhibition in vivo at 3 mg/kg: 3 mg./kg. i.v.; for inhibition in vivo at 10 mg/kg: 10 mg./kg. i.v.
[2] = tested on: bradykinin; assay: anti-bradykinin test (BRDK); type: in vivo; conditions: for inhibition in vivo at 50 mg/kg: 50 mg./kg. oral; for inhibition in vivo at 200 mg/kg: 200 mg./kg. oral; for inhibition in vivo at 30 mg/kg: 30 mg./kg. oral; for inhibition in vivo at 300 mg/kg: 300 mg./kg. oral
Source text: The test procedures used to determine the analgesic activities of the compounds have been described in detail in the prior art and are as follows: The acetylcholine-induced abdominal constriction test, which is a primary analgesic screening test designed to measure the ability of a test agent to suppress acetylcholine-induced abdominal constriction in mice, described by Collier et al., Brit. J. Pharmacol. Chemotherap. 32, 295 (1968); a modification of the anti-bradykinin test, which is also a primary analgesic screening procedure, described by Berkowitz et al., J. Pharmacol. Exptl. Therap. 177, 500-508 (1971), Blane et al., J. Pharm. Pharmacol. 19, 367-373 (1967), Botha et al., Eur. J. Pharmacol. 6, 312-321 (1969) and Deffenu et al., J. Pharm. Pharmacol. 18, 135 (1966); and the rat paw flexion test, described by Kuzuna et al., Chem. Pharm. Bull., 23, 1184-1191 (1975), Winter et al., J. Pharm. Exptl. Therap., 211, 678-685 (1979) and Capetola et al., J. Pharm. Exptl. Therap. 214, 16-23 (1980).
Unless noted otherwise, all data were obtained on oral administration and are expressed either as the ED50 or as the percent inhibition at a given dose level (thus 30/100 or 30% inhibition at […].)
In some instances, the compounds were retested two or more times, and ED50 values were calculated for each series of repeat tests. In such instances, each of the ED50 values so-obtained is given in a series of values, thus 6, 28, 30, 43 in the case of the species of Example 1AW in the acetylcholine-induced abdominal constriction test.

[3] = Mus musculus, po, read-out: Ach ED50
[4] = read-out: BRDK percent inhibition
[5] = Mus musculus, iv, read-out: Ach ED50
[6] = Mus musculus, iv, read-out: Ach percent inhibition
[7] = 100 mg./kg. oral, read-out: BRDK percent inhibition
[8] = Mus musculus, po, 100 mg./kg. oral, read-out: Ach percent inhibition
[9] = Mus musculus, po, 100 mg./kg. oral, Table D, formula II intermediates (Preparations), read-out: Ach percent inhibition

SMILES: COc1ccc(C(=O)c2cn(CCN3CCOCC3)c3ccccc23)cc1.CS(=O)(=O)O.O [Example 1A, 3-(4-methoxybenzoyl)-1-[2-(4-morpholinyl)ethyl]-1H-indole methanesulfonate monohydrate]
- ED50 [1, 3]: 73 mg/kg
- ED50 ([2]; po): 56 mg/kg

SMILES: O=C(c1ccccc1)c1cn(CCN2CCOCC2)c2ccccc12 [Example 1AP]
- ED50 [1, 3]: 42 mg/kg
- inhibition in vivo at 50 mg/kg [2, 4]: 0%
- inhibition in vivo at 200 mg/kg [2, 4]: 33%
- inhibition in vivo at 400 mg/kg ([2]; 400 mg./kg. oral, read-out: BRDK percent inhibition): 60%

SMILES: Cc1c(C(=O)c2cccs2)c2ccccc2n1CCN1CCOCC1 [Example 1AT]
- ED50 [1, 3]: 30 mg/kg
- inhibition in vivo at 50 mg/kg [2, 4]: 0%
- inhibition in vivo at 200 mg/kg [2, 4]: 0%

SMILES: COc1ccc2c(C(=O)c3ccc(Cl)cc3)c(C)n(CCN3CCOCC3)c2c1 [Example 1AU]
- ED50 [1, 3]: 42 mg/kg
- inhibition in vivo at 50 mg/kg [2, 4]: 0%

SMILES: COc1ccc2c(C(=O)c3cccs3)c(C)n(CCN3CCOCC3)c2c1 [Example 1AV]
- ED50 [1, 3]: 38 mg/kg
- inhibition in vivo at 50 mg/kg [2, 4]: 0%

SMILES: Cc1c(C(=O)c2ccccc2)c2ccccc2n1CC(C)N1CCOCC1 (centres unmarked) [Example 1AX]
- ED50 [1, 3]: 45 mg/kg
- inhibition in vivo at 212 mg/kg ([2]; 212 mg./kg. oral, read-out: BRDK percent inhibition): 0%

SMILES: COc1ccc(C(=O)c2c(C)n(CCN3CCOCC3)c3ccccc23)cc1 [Example 1B, 2-methyl-3-(4-methoxybenzoyl)-1-[2-(4-morpholinyl)ethyl]-1H-indole]
- ED50 [1, 5]: 6.7 mg/kg
- ED50 ([2]; iv): 8.1 mg/kg

SMILES: COc1ccc(C(=O)c2c(C)n(CCN3CCOCC3)c3ccccc23)c2ccccc12 [Example 1BI]
- ED50 [1, 5]: 0.69 mg/kg
- inhibition in vivo at 300 mg/kg ([1]; Mus musculus, po, 300 mg./kg. oral, read-out: Ach percent inhibition): 13%
- inhibition in vivo at 100 mg/kg ([1]; Mus musculus, sc, 100 mg./kg. s.c., read-out: Ach percent inhibition): 27%
- inhibition in vivo at 6 mg/kg ([2]; 6 mg./kg. oral, read-out: BRDK percent inhibition): 0%

SMILES: Cc1c(C(=O)c2cc3ccccc3o2)c2ccccc2n1CCN1CCOCC1 [Example 1S]
- inhibition in vivo at 1 mg/kg [1, 6]: 10%
- inhibition in vivo at 3 mg/kg [1, 6]: 20%
- inhibition in vivo at 10 mg/kg [1, 6]: 100%
- ED50 [1, 3]: 40 mg/kg
- ED50 ([2]; po): 162 mg/kg

SMILES: Cc1c(C(=O)c2ccccc2F)c2ccccc2n1C(C)CN1CCOCC1 (centres unmarked) [Example 2C]
- ED50 [1, 5]: 3.3 mg/kg
- ED50 [1, 3]: 19 mg/kg
- inhibition in vivo at 30 mg/kg [2, 4]: 0%
- inhibition in vivo at 300 mg/kg [2, 4]: 60%

SMILES: Cc1c(C(=O)c2cccc(N)c2)c2ccccc2n1CCN1CCOCC1 [Example 4A, 2-methyl-3-(3-aminobenzoyl)-1-[2-(4-morpholinyl)ethyl]-1H-indole]
- ED50 [1, 3]: 16 mg/kg
- ED50 ([2]; po): 53 mg/kg

SMILES: CC(=O)Nc1ccc(C(=O)c2c(C)n(CCN3CCOCC3)c3ccccc23)cc1 [Example 5A, 2-methyl-3-(4-acetylaminobenzoyl)-1-[2-(4-morpholinyl)ethyl]-1H-indole]
- inhibition in vivo at 1 mg/kg [1, 6]: 20%
- inhibition in vivo at 3 mg/kg [1, 6]: 29%
- inhibition in vivo at 10 mg/kg [1, 6]: 30%
- ED50 [1, 3]: 31 mg/kg
- inhibition in vivo at 300 mg/kg [2, 4]: 0%

SMILES: Cc1c(C(=O)c2ccc(NC(=O)C(F)(F)F)cc2)c2ccccc2n1CCN1CCOCC1 [Example 5C, 2-methyl-3-[4-(N-trifluoroacetylamino)benzoyl]-1-[2-(4-morpholinyl)ethyl]-1H-indole]
- ED50 [1, 3]: 19 mg/kg
- inhibition in vivo at 30 mg/kg [2, 4]: 20%
- inhibition in vivo at 100 mg/kg [2, 7]: 60%
- inhibition in vivo at 300 mg/kg [2, 4]: 60%

SMILES: Cc1c(C(=O)c2ccc(NC(=O)c3ccccc3)cc2)c2ccccc2n1CCN1CCOCC1 [Example 5D]
- inhibition in vivo at 3 mg/kg [1, 6]: 57%
- ED50 [1, 5]: 29.1 mg/kg
- ED50 [1, 3]: 84 mg/kg
- inhibition in vivo at 200 mg/kg [2, 4]: 20%

SMILES: Cc1c(C(=O)c2ccc(O)cc2)c2ccccc2n1CCN1CCOCC1.Cl [Example 6, 2-methyl-3-(4-hydroxybenzoyl)-1-[2-(4-morpholinyl)ethyl]-1H-indole hydrochloride]
- inhibition in vivo at 10 mg/kg [1, 6]: 0%
- inhibition in vivo at 30 mg/kg ([1]; Mus musculus, iv, 30 mg./kg. i.v., read-out: Ach percent inhibition): 0%
- ED50 [1, 3]: 83 mg/kg
- inhibition in vivo at 30 mg/kg ([1]; Mus musculus, sc, 30 mg./kg. s.c., read-out: Ach percent inhibition): 13%
- inhibition in vivo at 100 mg/kg [2, 7]: 0%
- inhibition in vivo at 300 mg/kg [2, 4]: 0%

SMILES: Cc1c(C(=O)c2ccc(CN)cc2)c2ccccc2n1CCN1CCOCC1.Cl.Cl [Example 7, 2-methyl-3-(4-aminomethylbenzoyl)-1-[2-(4-morpholinyl)ethyl]-1H-indole dihydrochloride]
- ED50 [1, 3]: 40 mg/kg
- inhibition in vivo at 300 mg/kg [2, 4]: 0%

SMILES: Cc1c(C(=O)c2ccc(CNC(=N)N)cc2)c2ccccc2n1CCN1CCOCC1 [Example 17, 2-methyl-3-(4-guanidinylmethylbenzoyl)-1-[2-(4-morpholinyl)ethyl]-1H-indole sulfate (2:1)]
- inhibition in vivo at 30 mg/kg ([1]; Mus musculus, po, 30 mg./kg. oral, read-out: Ach percent inhibition): 7%
- ED50 ([1]; Mus musculus, sc, read-out: Ach ED50): 6.6 mg/kg
- inhibition in vivo at 100 mg/kg ([2]; sc, 100 mg./kg. s.c., read-out: BRDK percent inhibition): 33%

SMILES: COc1ccc(C(=O)c2c(C)n(CC[N+]3([O-])CC[S+]([O-])CC3)c3ccccc23)cc1 (centres unmarked) [Example 29C, 2-methyl-3-(4-methoxybenzoyl)-1-[2-(4-thiomorpholinyl)ethyl]-1H-indole S,N-dioxide dihydrate]
- inhibition in vivo at 100 mg/kg [1, 8]: 0%

SMILES: Cc1c(C(=O)c2ccccc2)c2cc(O)ccc2n1CCN1CCOCC1 [Example 30, 3-benzoyl-5-hydroxy-2-methyl-1-[2-(4-morpholinyl)ethyl]-1H-indole]
- inhibition in vivo at 100 mg/kg [1, 8]: 10%

SMILES: CCN(CC)CC(O)Cn1c(C)c(C(=O)c2ccc(OC)cc2)c2ccccc21 (centres unmarked) [Example 31-O]
- inhibition in vivo at 100 mg/kg [1, 8]: 100%

SMILES: COc1ccc(C(=O)c2c(C)n(CC(O)CN3CCOCC3)c3ccc(F)cc23)cc1.Cl.O (centres unmarked) [Example 31A, 1-[2-hydroxy-3-(4-morpholinyl)propyl]-5-fluoro-2-methyl-3-(4-methoxybenzoyl)-1H-indole hydrochloride hydrate]
- ED50 [1, 3]: 58 mg/kg

SMILES: COc1ccc(C(=O)c2c(C)n(CC(O)CN3CCCC3)c3ccc(F)cc23)cc1 (centres unmarked) [Example 31C]
- ED50 [1, 3]: 53 mg/kg

SMILES: Cc1c(C(=O)c2cccc3ccccc23)c2ccccc2n1CC(O)CN1CCCC1 (centres unmarked) [Example 31F]
- inhibition in vivo at 3 mg/kg [1, 6]: 0%

SMILES: COc1ccc(C(=O)c2c(C)n(CC(O)CN3CCOCC3)c3ccccc23)cc1 (centres unmarked) [Example 31G]
- ED50 [1, 3]: 133 mg/kg

SMILES: COc1ccc(C(=O)c2c(C)n(CC(O)CN3CCCC3)c3ccccc23)cc1 (centres unmarked) [Example 31H]
- inhibition in vivo at 10 mg/kg [1, 6]: 80%
- ED50 [1, 3]: 56 mg/kg

SMILES: COc1ccc(C(=O)c2c(C)n(CC(O)CN=[N+]=[N-])c3ccccc23)cc1 (centres unmarked) [Example 31J, 1-(3-azido-2-hydroxy-1-propyl)-2-methyl-3-(4-methoxybenzoyl)-1H-indole]
- inhibition in vivo at 100 mg/kg [1, 8]: 10%

SMILES: COc1ccc(C(=O)c2c(C)n(CC(O)CN3CCC3)c3ccccc23)cc1 (centres unmarked) [Example 31K]
- ED50 [1, 3]: 28 mg/kg

SMILES: COc1ccc(C(=O)c2c(C)n(CC(O)CN(C)C)c3ccccc23)cc1 (centres unmarked) [Example 31L]
- ED50 [1, 3]: 32 mg/kg

SMILES: COc1ccc(C(=O)c2c(C)n(CC(O)CNC(C)C)c3ccccc23)cc1 (centres unmarked) [Example 31M]
- ED50 [1, 3]: 26 mg/kg

SMILES: CCNCC(O)Cn1c(C)c(C(=O)c2ccc(OC)cc2)c2ccccc21 (centres unmarked) [Example 31N]
- inhibition in vivo at 100 mg/kg [1, 8]: 90%

SMILES: COc1ccc(C(=O)c2c(C)n(CC(O)CN)c3ccccc23)cc1 (centres unmarked) [Example 32, 1-(3-amino-2-hydroxy-1-propyl)-2-methyl-3-(4-methoxybenzoyl)-1H-indole]
- ED50 [1, 3]: 85 mg/kg

SMILES: Cc1[nH]c2ccccc2c1C(=O)c1ccccc1-c1ccccc1 [Preparation 1AK]
- inhibition in vivo at 100 mg/kg [1, 9]: 20%

SMILES: Cc1[nH]c2ccccc2c1C(=O)c1ccc(-c2ccccc2)cc1 [Preparation 1AL]
- inhibition in vivo at 100 mg/kg [1, 9]: 20%

SMILES: COc1cc(OC)cc(C(=O)c2c(C)[nH]c3ccccc23)c1 [Preparation 1AO]
- inhibition in vivo at 100 mg/kg [1, 9]: 40%

SMILES: COc1ccc(C(=O)c2c(C)[nH]c3ccc(F)cc23)cc1 [Preparation 1F, 2-methyl-5-fluoro-3-(4-methoxybenzoyl)indole]
- inhibition in vivo at 100 mg/kg [1, 9]: 0%

SMILES: CS(=O)(=O)O.Cc1cc2ccccc2n1C(C)CN1CCOCC1.O (centres unmarked) [Preparation 5A, 2-methyl-1-[1-methyl-2-(4-morpholinyl)ethyl]-1H-indole methanesulfonate hydrate]
- inhibition in acetylcholine-induced abdominal constriction test ([1]; 300 mg./kg. (p.o.), Preparations): 40%

SMILES: Cc1cc2cc(F)ccc2n1C(C)CN(C)C (centres unmarked) [Preparation 8, 5-fluoro-2-methyl-1-(1-methyl-2-dimethylaminoethyl)-1H-indole]
- ED50 ([1]; Mus musculus, po, Preparations, read-out: ED50 in acetylcholine-induced abdominal constriction test): 25 mg/kg
